Test [1] addresses T1, human Nav1.6 ion channels (Homo sapiens, UniProt Q9UQD0).
T1 construct: host or cells: CHO
Nature of the test: IonWorks electrophysiological assay on CHO cells expressing human Nav1.6. The format is cell-based. The following applies: CHO human Nav1.6 expressing cells. As for the experimental part:
IonWorks electrophysiological assays were conducted to profile compounds for activity on CHO human Nav1.6 ion channels expressing cells (Milipore) using a unique protocol to assess the close (tonic, Pulse 1) and inactivated state inhibition (Pulse 2). The membrane potential is initially held at a hyperpolarized potential (−120 mV) to drive sodium channels into the resting closed state. The membrane is then reset to 0 mV voltage (for 2.5 seconds) following a brief 5 ms hyperpolarization to partially remove inactivation of non-blocked sodium channels; a short 20 ms test voltage step is applied to assess the magnitude of inhibition.
(In patch-clamp work, channel activity is measured electrically.)

For test [2] the following is noted: secondary progressive MS patients; over 2 years; p=0.02; cited from earlier work.
Setting [3] is: closed (tonic) state inhibition (Pulse 1), read-out: Nav1.6 Tonic.
Setting [4] is: inactivated state inhibition (Pulse 2), read-out: Nav1.6 Inactivated.

Read-outs that look alike come from different tables or passages of the source.

T1 sequence (Q9UQD0 whole entry): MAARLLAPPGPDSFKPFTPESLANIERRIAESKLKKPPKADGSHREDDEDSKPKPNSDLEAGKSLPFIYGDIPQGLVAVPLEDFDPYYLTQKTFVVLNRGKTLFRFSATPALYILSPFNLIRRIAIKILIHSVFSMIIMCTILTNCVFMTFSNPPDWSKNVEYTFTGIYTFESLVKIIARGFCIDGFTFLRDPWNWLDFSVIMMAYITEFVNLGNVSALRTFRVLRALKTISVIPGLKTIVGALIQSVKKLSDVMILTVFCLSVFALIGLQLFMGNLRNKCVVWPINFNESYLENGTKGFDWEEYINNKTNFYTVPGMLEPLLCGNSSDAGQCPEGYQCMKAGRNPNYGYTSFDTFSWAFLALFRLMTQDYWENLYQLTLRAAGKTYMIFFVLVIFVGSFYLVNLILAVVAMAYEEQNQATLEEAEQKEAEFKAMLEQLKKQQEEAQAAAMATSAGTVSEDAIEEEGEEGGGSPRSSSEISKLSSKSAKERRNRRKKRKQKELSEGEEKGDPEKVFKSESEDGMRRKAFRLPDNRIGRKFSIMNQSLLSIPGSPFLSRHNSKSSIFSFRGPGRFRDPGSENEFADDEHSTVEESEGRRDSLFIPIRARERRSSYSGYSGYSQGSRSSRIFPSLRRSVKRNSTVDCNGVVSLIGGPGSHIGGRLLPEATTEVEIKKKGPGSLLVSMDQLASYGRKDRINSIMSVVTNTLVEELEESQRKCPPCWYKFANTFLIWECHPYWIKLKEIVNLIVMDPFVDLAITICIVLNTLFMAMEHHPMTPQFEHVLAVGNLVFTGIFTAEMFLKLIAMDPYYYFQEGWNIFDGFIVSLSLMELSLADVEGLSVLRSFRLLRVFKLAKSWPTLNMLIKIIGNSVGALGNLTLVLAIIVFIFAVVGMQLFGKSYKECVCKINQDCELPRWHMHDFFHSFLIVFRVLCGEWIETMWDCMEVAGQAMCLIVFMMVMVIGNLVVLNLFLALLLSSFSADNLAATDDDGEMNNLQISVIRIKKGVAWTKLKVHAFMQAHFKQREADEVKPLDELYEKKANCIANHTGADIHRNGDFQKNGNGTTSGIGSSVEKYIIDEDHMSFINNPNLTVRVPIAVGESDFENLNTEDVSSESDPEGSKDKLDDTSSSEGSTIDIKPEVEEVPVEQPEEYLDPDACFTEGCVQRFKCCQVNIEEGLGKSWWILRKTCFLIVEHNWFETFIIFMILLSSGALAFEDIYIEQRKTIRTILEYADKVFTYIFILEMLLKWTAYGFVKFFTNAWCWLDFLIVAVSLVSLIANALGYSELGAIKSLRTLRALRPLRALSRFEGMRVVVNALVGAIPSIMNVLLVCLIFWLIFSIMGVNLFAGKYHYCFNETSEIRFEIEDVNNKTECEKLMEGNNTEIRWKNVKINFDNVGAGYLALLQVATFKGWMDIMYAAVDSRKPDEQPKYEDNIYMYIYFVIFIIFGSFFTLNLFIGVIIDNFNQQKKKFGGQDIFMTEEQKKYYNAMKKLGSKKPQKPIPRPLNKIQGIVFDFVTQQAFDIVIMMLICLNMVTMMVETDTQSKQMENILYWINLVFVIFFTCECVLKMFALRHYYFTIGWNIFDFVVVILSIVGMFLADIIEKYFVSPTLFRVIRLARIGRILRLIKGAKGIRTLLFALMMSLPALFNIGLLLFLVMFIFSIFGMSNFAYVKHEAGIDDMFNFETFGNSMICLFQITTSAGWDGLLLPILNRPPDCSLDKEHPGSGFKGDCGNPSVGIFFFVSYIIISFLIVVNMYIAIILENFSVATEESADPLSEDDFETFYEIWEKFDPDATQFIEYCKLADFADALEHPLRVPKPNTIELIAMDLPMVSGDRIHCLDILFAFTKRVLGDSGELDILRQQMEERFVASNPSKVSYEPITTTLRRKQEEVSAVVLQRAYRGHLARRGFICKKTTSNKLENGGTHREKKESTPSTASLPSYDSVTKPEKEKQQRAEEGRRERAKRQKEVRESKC

In the case of `CN1CCN(C(=O)C2(C)CCN(Cc3cccc(Oc4ccccc4)c3)C2)CC1` (racemic) [Example 20, (±) [3-methyl-1-(3-phenoxy-benzyl)-pyrrolidin-3-yl]-(4-methyl-piperazin-1-yl)-methanone], the results for the IC50 in test [1] (setting [3]) and in test [1] (setting [4]) were 8940 nM and 1910 nM, respectively.

Regarding `CN(Cc1ccccn1)C(=O)C1(C)CCN(Cc2cccc(Oc3ccccc3)c2)C1` (racemic) [Example 14, (±) 3-methyl-1-(3-phenoxy-benzyl)-pyrrolidine-3-carboxylic acid methyl-pyridin-2-ylmethyl-amide], the IC50 came out at 30300 nM in test [1] (setting [3]) and 473 nM in test [1] (setting [4]).

On to `CCCNC(=O)C1(C)CCN(Cc2csc(-c3ccc(Cl)cc3)n2)C1` (stereo not shown) [Example 8], for which the IC50 stood at 14800 nM in test [1] (setting [3]) and 1030 nM in test [1] (setting [4]).

With `COC1CCN(C(=O)C2CCN(Cc3cccc(Oc4ccccc4)c3)C2)CC1` (racemic) [Example 30, (±) (4-methoxy-piperidin-1-yl)-[1-(3-phenoxy-benzyl)-pyrrolidin-3-yl]-methanone], the IC50 in test [1] (setting [3]) is greater than 33000 nM; in test [1] (setting [4]), 1090 nM.

In the case of `O=C(NCc1ccccn1)C1CCN(Cc2cccc(Oc3ccccc3)c2)C1` (racemic) [Example 34, (±) 1-(3-phenoxy-benzyl)-pyrrolidine-3-carboxylic acid (Pyridin-2-ylmethyl)-amide], the IC50 was 16200 nM in test [1] (setting [3]) and 353 nM in test [1] (setting [4]).

For the compound `COCCNC(=O)C1CCN(Cc2cccc(Oc3ccccc3)c2)C1` (racemic) [Example 19, (±) 1-(3-phenoxy-benzyl)-pyrrolidine-3-carboxylic acid (2-methoxy-ethyl)-amide], the results for the IC50 in test [1] (setting [3]) and in test [1] (setting [4]) were 30300 nM and 1180 nM, respectively.

For the compound `CC(C)COc1cccc(CN2CCC(C)(C(=O)NCc3ccccn3)C2)c1` (racemic) [Example 23, (±) 1-(3-isobutoxy-benzyl)-3-methyl-pyrrolidine-3-carboxylic acid (pyridin-2-ylmethyl)-amide], the IC50 in test [1] (setting [3]) was greater than 33000 nM; in test [1] (setting [4]), 445 nM.

On to `CCNC(=O)C1CCN(Cc2cccc(Oc3ccccc3)c2)C1` (racemic) [Example 18, (±) 1-(3-phenoxy-benzyl)-pyrrolidine-3-carboxylic acid ethylamide], for which the IC50 in test [1] (setting [3]) stood at 23100 nM; in test [1] (setting [4]) it was 621 nM.

With `O=C(NCCc1ccccn1)C1CCN(Cc2cccc(Oc3ccccc3)c2)C1` (racemic) [Example 28, (±) 1-(3-phenoxy-benzyl)-pyrrolidine-3-carboxylic acid (2-pyridin-2-yl-ethyl)-amide], the IC50 in test [1] (setting [3]) was found to be 19600 nM; in test [1] (setting [4]), 1170 nM.

`CC1(C(=O)NCc2ccccn2)CCN(Cc2csc(-c3ccccc3)n2)C1` (racemic) [Example 21, (±) 3-methyl-1-(2-phenyl-thiazol-4-ylmethyl)-pyrrolidine-3-carboxylic acid (pyridin-2-ylmethyl)-amide]: the IC50 is greater than 33000 nM in test [1] (setting [3]) and 1080 nM in test [1] (setting [4]).

For the compound `CCNC(=O)C1(C)CCN(Cc2ccc(-c3ccccc3)cc2)C1` (stereo not shown) [Example 1], the IC50 in test [1] (setting [3]) was 21400 nM; in test [1] (setting [4]), 1770 nM.

As for `CC1(C(=O)NCc2cccnc2)CCN(Cc2cccc(Oc3ccccc3)c2)C1` (racemic) [Example 16, (±) 3-methyl-1-(3-phenoxy-benzyl)-pyrrolidine-3-carboxylic acid (pyridin-3-ylmethyl)-amide], the IC50 in test [1] (setting [3]) was 13100 nM; in test [1] (setting [4]) it was 409 nM.

On to `CC1(C(=O)N2CCOCC2)CCN(Cc2cccc(Oc3ccccc3)c2)C1` (racemic) [Example 15, (±) [3-methyl-1-(3-phenoxy-benzyl)-pyrrolidin-3-yl]-morpholin-4-yl-methanone], for which the IC50 in test [1] (setting [3]) turned out to be 15500 nM; in test [1] (setting [4]), 733 nM.

Turning to `Cc1ccccc1CNC(=O)C1(C)CCN(Cc2cccc(Oc3ccccc3)c2)C1` (racemic) [Example 9, (±) 3-methyl-1-(3-phenoxy-benzyl)-pyrrolidine-3-carboxylic acid 2-methyl-benzylamide], the IC50 in test [1] (setting [3]) amounted to 14100 nM; in test [1] (setting [4]) it was 615 nM.

For the compound `COC1CCCN(C(=O)C2CCN(Cc3cccc(Oc4ccccc4)c3)C2)C1` (racemic) [Example 29, (±) (3-methoxy-piperidin-1-yl)-[1-(3-phenoxy-benzyl)-pyrrolidin-3-yl]-methanone], the figures for the IC50 in test [1] (setting [3]) and in test [1] (setting [4]) were greater than 33000 nM and 1890 nM, respectively.

Take `O=C(NCc1cccnc1)[C@@H]1CCN(Cc2cccc(Oc3ccccc3)c2)C1` [Example 24, (R)-1(3-phenoxy-benzyl)-pyrrolidine-3-carboxylic acid (pyridin-3-ylmethyl)-amide]: the IC50 in test [1] (setting [3]) amounted to 29900 nM; in test [1] (setting [4]) it was 1300 nM.

With `CC1(C(=O)NCc2ccncc2)CCN(Cc2cccc(Oc3ccccc3)c2)C1` (racemic) [Example 17, (±) 3-methyl-1-(3-phenoxy-benzyl)-pyrrolidine-3-carboxylic acid (pyridin-4-ylmethyl)-amide], the IC50 in test [1] (setting [3]) worked out at 16400 nM; in test [1] (setting [4]), 940 nM.

For `COCCNC(=O)C1(C)CCN(Cc2cccc(Oc3ccccc3)c2)C1` (stereo not shown) [Example 2], the IC50 was 15500 nM in test [1] (setting [3]) and 993 nM in test [1] (setting [4]).

In the case of `CC1(C(=O)N2CCc3cccnc3C2)CCN(Cc2cccc(Oc3ccccc3)c2)C1` (racemic) [Example 32, (±) (5,8-dihydro-6H-[1,7]naphthyridin-7-yl)-[3-methyl-1-(3-phenoxy-benzyl)-pyrrolidin-3-yl]-methanone], the values for the IC50 in test [1] (setting [3]) and in test [1] (setting [4]) were greater than 33000 nM and 1670 nM, respectively.

Take `CC1(C(=O)N2CCc3cccc(C(F)(F)F)c3C2)CCN(Cc2cccc(Oc3ccccc3)c2)C1` (racemic) [Example 13, (±) [3-methyl-1-(3-phenoxy-benzyl)-pyrrolidin-3-yl]-(8-trifluoromethyl-3,4-dihydro-1H-isoquinolin-2-yl)-methanone]: the IC50 in test [1] (setting [3]) was greater than 33000 nM; in test [1] (setting [4]), 1970 nM.

Turning to `CC1(C(=O)NCCc2ccccn2)CCN(Cc2cccc(Oc3ccccc3)c2)C1` (racemic) [Example 26, (±) 3-methyl-1-(3-phenoxy-benzyl)-pyrrolidine-3-carboxylic acid (2-pyridin-2-v1-ethyl)-amide], the IC50 in test [1] (setting [3]) turned out to be 10600 nM; in test [1] (setting [4]), 771 nM.

For the compound `CCCNC(=O)C1(C)CCN(Cc2ccc(OC)c3ccccc23)C1` (stereo not shown) [Example 6], the IC50 worked out at 23400 nM in test [1] (setting [3]) and 1860 nM in test [1] (setting [4]).

For `CC1(C(=O)N2Cc3cccnc3C2)CCN(Cc2cccc(Oc3ccccc3)c2)C1` (racemic) [Example 31, (±) (5,7-dihydro-pyrrolo[3,4-b]pyridin-6-yl)-[3-methyl-1-(3-phenoxy-benzyl)-pyrrolidin-3-yl]-methanone], the IC50 in test [1] (setting [3]) was greater than 33000 nM; in test [1] (setting [4]) it was 1740 nM.

With `CCCNC(=O)C1(C)CCN(Cc2cccc(Oc3ccccc3)c2)C1` (stereo not shown) [Example 4], the figures for the IC50 in test [1] (setting [3]) and in test [1] (setting [4]) were 9420 nM and 1030 nM, respectively.

Take `CC1CN(C(=O)C2CCN(Cc3cccc(Oc4ccccc4)c3)C2)CCO1` (racemic) [Example 27, (±) (2-methyl-morpholin-4-yl)-[1-(3-phenoxy-benzyl)-pyrrolidin-3-yl]-methanone]: the results for the IC50 in test [1] (setting [3]) and in test [1] (setting [4]) were greater than 33000 nM and 1440 nM, respectively.

`CC(C)COc1cccc(CN2CCC(C)(C(=O)N(C)Cc3ccccn3)C2)c1` (racemic) [Example 25, (±) 1-(3-isobutoxy-benzyl)-3-methyl-pyrrolidine-3-carboxylic acid methyl-pyridin-2-ylmethyl-amide]: the results for the IC50 in test [1] (setting [3]) and in test [1] (setting [4]) were 19900 nM and 752 nM, respectively.

With `COC(=O)C1(C)CCN(Cc2cccc(OCC(C)C)c2)C1` (racemic) [Example 22, (±) 1-(3-isobutoxy-benzyl)-3-methyl-pyrrolidine-3-carboxylic acid methyl ester], the IC50 in test [1] (setting [3]) is greater than 33000 nM; in test [1] (setting [4]), 994 nM.

With `COC1CCN(C(=O)C2CCN(Cc3cccc(Oc4ccccc4)c3)C2)C1` (racemic) [Example 33, (±) (3-methoxy-pyrrolidin-1-yl)-[1-(3-phenoxy-benzyl)-Pyrrolidin-3-yl]-methanone], the IC50 was greater than 33000 nM in test [1] (setting [3]) and 1520 nM in test [1] (setting [4]).

For the compound `CCNC(=O)[C@@]1(C)CCN(Cc2cccc(Oc3ccccc3)c2)C1` (single isomer, unassigned) [Example 10], the IC50 in test [1] (setting [3]) stood at 20000 nM; in test [1] (setting [4]), 808 nM.

In the case of `CCNC(=O)[C@]1(C)CCN(Cc2cccc(Oc3ccccc3)c2)C1` (single isomer, unassigned) [Example 11], the IC50 in test [1] (setting [3]) was found to be 15700 nM; in test [1] (setting [4]), 825 nM.

Turning to `CC1(C(=O)NCc2ccccn2)CCN(Cc2cccc(Oc3ccccc3)c2)C1` (racemic) [Example 12, (±) 3-methyl-1-(3-phenoxy-benzyl)-pyrrolidine-3-carboxylic acid (pyridin-2-ylmethyl)-amide], the IC50 in test [1] (setting [3]) is greater than 33000 nM; in test [1] (setting [4]) it was 228 nM.

Take `CCCNC(=O)C1(C)CCN(Cc2cccc(OC(=O)c3ccccc3)c2)C1` (stereo not shown) [Example 7]: the results for the IC50 in test [1] (setting [3]) and in test [1] (setting [4]) were greater than 33000 nM and 1610 nM, respectively.

Regarding `Nc1nnc(-c2cccc(Cl)c2Cl)c(N)n1` [Lamotrigine], the “deterioration of the timed 25-foot walk” value in test [2] is given as “reduced the deterioration of the timed 25-foot walk”.

On to `CCCNC(=O)C1(C)CCN(Cc2ccc(-c3ccccc3)o2)C1` (stereo not shown) [Example 5], for which the IC50 was 30700 nM in test [1] (setting [3]) and 785 nM in test [1] (setting [4]).
